# Data taken from patent publication US20100068747A1, “Generic Assay for Monitoring Endocytosis” (Evotec Technologies GmbH, priority 2005, published 2010).
# How the values were obtained:
# CHO/ETAR cells [1] = assay: Lectin labeling of fixed cells, CHO/ETAR; assay type: cell-based; conditions: TRITC-lectin 10 nM and 20 nM
# Description: Lectin labeling of fixed cells was conducted as follows: To detach confluent cells in order to prepare experiments for internalization studies, cells were always treated with EDTA solution instead of trypsin solution. For all seeding, washing, and labeling steps in 96-well plates a working volume of 100 μl per well was assessed. Cells were seeded out into a 96-well plate at different concentrations. U2OS/ETAR-GFP suspensions were adjusted to yield 2*10^4 cells/well, both of the CHO cell lines must be at 2.5*10^4 cells/well. Cells became confluent after 24 hours of incubation. In the following, they were washed with phosphate buffered saline (PBS) and fixed with 3% PFA for 20 minutes at RT. Then, cells were washed again with PBS and incubated in 10 nM and 20 nM solutions of each TRITC-lectin candidate in PBS, respectively. Again, cells were washed with PBS to remove excess lectin, and wells were refilled with PBS for analysis. For specificity controls, lectin solutions were incubated for 30 minutes prior to the application with an excess of the monosaccharide that represents the respective glyco-epitope.
# (§1) The following microscopy and image analysis techniques were employed. When utilizing the epifluorescence microscope magnifications were adjusted according to the purpose of observation, e.g. single cell vs. cell collective. Concerning the filters U-MNU was used for Hoechst, U-MSWB for GFP, and U-N41007 for TRITC detection. Hoechst images were taken at 50 ms exposure time, GFP images at 100 to 200 ms and TRITC images needed 500 to 1000 ms. Overlay images were assembled with AnalySIS and tuned in color intensity to obtain the desired color contrast. Images taken to compare two experimental conditions, e.g. control vs. stimulus, featured identical exposure parameters. If possible, well areas were chosen that reflect similar states of confluence. Utilizing the Opera confocal fluorescence imager, the instrument was calibrated running standard methods for skew cropping (spatial camera alignments) and camera intensity normalization.
# CHO/ETAR cells [2] = assay: Lectin labeling of live cells, CHO/ETAR; assay type: cell-based; conditions: TRITC-lectin, 10 nM at maximum
# Description: Lectin labeling of live cells was conducted as follows: Cells were seeded as described above. After 24 hours cells were washed once with PBS and incubated in the incubator for another 2 hours in the respective standard medium without serum supplement to deprive them of serum factor mediated stimuli. This step was termed starvation period. Subsequently, cells were washed gently with PBS and incubated with 37° C. tempered assay medium comprised of Hank's Balanced Salt Solution (HBSS) pH 7.4, containing 20 mM HEPES and 30 mM D-glucose. The plate was left at RT for 30 minutes to slowly level its temperature and, thus, avoid capturing of temperature drop induced membrane dynamics. This period was termed leveling period. Then, assay medium was withdrawn and wells refilled with TRITC-lectin solutions at RT to start cell labeling. Several lectin concentrations in the low nano-molar range were tested. Molar concentrations were calculated from the data provided by Vector Labs. The plate was placed on a rotating shaker at low revolutions for 10 minutes while incubating. The start of the lectin incubation is referred to as assay starting point with t=0 min. After the 10 min incubation period the cells were gently washed with PBS and wells refilled with assay buffer at RT. Instantly thereafter, fluorescence signals were monitored predominately using the epifluorescence microscope.
# as §1
substance,measurement,setting,value
succinylated Triticum vulgaris (wheat germ) agglutin [sWGA],Staining of CHO/ETAR,CHO/ETAR cells [1],cell surface
same,Live cell staining of CHO/ETAR,CHO/ETAR cells [2],single spot formation continued fairly slowly
